Measured values from the supplement of paper PMC11061612.

Experiments:
Test in all cases: combination Emax (second highest fraction inhibited in the dose matrix, 72 h); higher = more inhibition; extreme values may be limits of the assay
[1] = system: NCI-H1573 (Lung Adenocarcinoma)
In short: (§1)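 Bliss excess equals the observed combination effect minus the expected value EA + EB − EA·EB, where EA and EB are the effects of each agent alone. Combination Emax is the second-highest inhibition within the matrix. Inhibition was scaled from CellTiter-Glo 2.0 luminescence, with 0 set by vehicle wells and 1 by blank wells, after 72 hours of two-drug dosing of cells plated in 1536-well plates.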

[2] = system: HuP-T3 (Pancreatic Carcinoma)
In short: as §1

[3] = system: OVISE (Ovarian Carcinoma)
In short: as §1

[4] = system: H-EMC-SS (Chondrosarcoma)
In short: as §1

[5] = system: SCC-9 (Oral Cavity Carcinoma)
In short: as §1

[6] = system: VMRC-LCD (Lung Adenocarcinoma)
In short: as §1

[7] = system: BV-173 (Chronic Myelogenous Leukemia)
In short: as §1

[8] = system: EBC-1 (Squamous Cell Lung Carcinoma)
In short: as §1

[9] = system: KU-19-19 (Bladder Carcinoma)
In short: as §1

[10] = system: JHH-7 (Hepatocellular Carcinoma)
In short: as §1

[11] = system: NCI-H2405 (Lung Adenocarcinoma)
In short: as §1

[12] = system: KP-2 (Pancreatic Carcinoma)
In short: as §1

[13] = system: SNU-C1 (Colorectal Carcinoma)
In short: as §1

GI-1 (Glioblastoma) = system: GI-1 (Glioblastoma)
In short: as §1

Row | Compound | combination Emax [1] | combination Emax [2] | combination Emax [3] | combination Emax [4] | combination Emax [5] | combination Emax [6] | combination Emax [7] | combination Emax [8] | combination Emax [9] | combination Emax [10] | combination Emax [11] | combination Emax [12] | combination Emax [13] | combination Emax (GI-1 (Glioblastoma))
1 | Cc1cc2ncnn2cc1Nc1ncc2c(n1)n(C1CCOCC1)c(=O)n2C [AZD7648] + CN(C)CCCOc1ccc(-c2ccc3ncc4c(c3c2)n(C2CCOCC2)c(=O)n4C)cn1 [AZD0156] (first compound max 10 µM, 7x7, partner max 1 µM) | 0.15 | 0.141 | 0.366 | 0.545 | 0.24 | 0.253 | 0.386 | 0.218 | 0.212 | 0.177 | 0.183 | 0.0295 | 0.316 | 0.261
2 | COc1nnc2ccc(N3CCC(c4ccc(OCCN5CCN(C)C(=O)[C@H]5C)cc4)CC3)nn12 [AZD5153] + CCN(CCO)CCCOc1ccc2c(Nc3cc(CC(=O)Nc4cccc(F)c4)[nH]n3)ncnc2c1 [AZD2811] (first compound max 1 µM, 7x7, partner max 1 µM) | 0.412 | 0.597 | 0.589 | 0.248 | 0.428 | 0.816 | 0.936 | 0.764 | 0.665 | 0.361 | 0.367 | 0.401 | 0.531 | 0.873
3 | CS(=O)(=O)CCNCc1ccc(-c2ccc3ncnc(Nc4ccc(OCc5cccc(F)c5)c(Cl)c4)c3c2)o1 [Lapatinib] + C[C@@H](Oc1cc(-c2cnn(C3CCNCC3)c2)cnc1N)c1c(Cl)ccc(F)c1Cl [Crizotinib] (first compound max 10 µM, 7x7, partner max 10 µM) | 0.786 | 0.579 | 0.888 | 0.576 | 0.964 | 0.711 | 0.94 | 1 | 0.918 | 0.614 | 0.193 | 0.788 | 0.675 | 0.909
4 | CC1(C)CCC(CN2CCN(c3ccc(C(=O)NS(=O)(=O)c4ccc(NCC5CCOCC5)c([N+](=O)[O-])c4)c(Oc4cnc5[nH]ccc5c4)c3)CC2)=C(c2ccc(Cl)cc2)C1 [Venetoclax] + C=CCn1c(=O)c2cnc(Nc3ccc(N4CCN(C)CC4)cc3)nc2n1-c1cccc(C(C)(C)O)n1 [AZD1775] (first compound max 1 µM, partner max 1 µM) | 0.31 | 0.399 | 0.669 | 0.223 | 0.294 | 0.391 | 0.941 | 0.248 | 0.841 | 0.349 | 0.169 | 0.364 | 0.555 | 0.902
5 | CCc1c2c(nc3ccc(O)cc13)-c1cc3c(c(=O)n1C2)COC(=O)[C@]3(O)CC [SN-38] + CN(C)CCCOc1ccc(-c2ccc3ncc4c(c3c2)n(C2CCOCC2)c(=O)n4C)cn1 [AZD0156] (first compound max 0.3 µM, 7x7, partner max 1 µM) | 0.228 | 0.704 | 0.181 | 0.643 | 0.392 | 0.0996 | 0.981 | 0.863 | 0.828 | 0.208 | 0.448 | 0.404 | 0.419 | 0.974
6 | CN(CCO)CC[C@H](CSc1ccccc1)Nc1ccc(S(=O)(=O)NC(=O)c2ccc(N3CCC([C@@H](O)c4ccccc4-c4ccc(Cl)cc4)CC3)cc2)cc1S(=O)(=O)C(F)(F)F [AZD4320] + C1CN(CCC1(C(=O)N[C@@H](CCO)C2=CC=C(C=C2)Cl)N)C3=NC=NC4=C3C=CN4 [Capivasertib] (first compound max 1 µM, 7x7, partner max 3 µM) | 0.575 | 0.118 | 0.89 | 0.753 | 0.21 | 0.0578 | 0.962 | 0.935 | 0.174 | 0.391 | 0.224 | 0.842 | 0.775 | 0.627
7 | COc1cccc(OCCCN)c1-c1cc(Nc2cnc(C#N)cn2)n[nH]1 [Prexasertib] + C[C@@H]1COCCN1C2=NC(=NC(=C2)C3(CC3)[S@](=N)(=O)C)C4=C5C=CNC5=NC=C4 [AZD6738] (first compound max 1 µM, 7x7, partner max 10 µM) | 0.669 | 0.663 | 0.716 | 0.383 | 0.433 | 0.753 | 0.964 | 0.626 | 0.836 | 0.4 | 0.337 | 0.398 | 0.73 | 0.962
8 | NC1(C(=O)N[C@@H](CCO)c2ccc(Cl)cc2)CCN(c2ncnc3[nH]ccc23)CC1 [Capivasertib] + COc1nnc2ccc(N3CCC(c4ccc(OCCN5CCN(C)C(=O)[C@H]5C)cc4)CC3)nn12 [AZD5153] (first compound max 10 µM, 7x7, partner max 1 µM) | 0.562 | 0.522 | 0.526 | 0.351 | 0.538 | 0.454 | 0.905 | 0.829 | 0.746 | 0.311 | 0.481 | 0.442 | 0.813 | 0.915
9 | Cc1c2c(nn1C)CSCc1cc(n(C)n1)CSc1cc(c3ccccc3c1)OCCCc1c(C(=O)O)n(C)c3c-2c(Cl)ccc13 [AZD5991] + C1CN(CCC1(C(=O)N[C@@H](CCO)C2=CC=C(C=C2)Cl)N)C3=NC=NC4=C3C=CN4 [Capivasertib] (first compound max 1 µM, 7x7, partner max 3 µM) | 0.264 | 0.228 | 0.354 | 0.647 | 0.231 | 0.129 | 0.927 | 0.287 | 0.174 | 0.188 | 0.203 | 0.18 | 0.576 | 0.949
10 | CC1(C)CCC(CN2CCN(c3ccc(C(=O)NS(=O)(=O)c4ccc(NCC5CCOCC5)c([N+](=O)[O-])c4)c(Oc4cnc5[nH]ccc5c4)c3)CC2)=C(c2ccc(Cl)cc2)C1 [Venetoclax] + CCN(CCO)CCCOc1ccc2c(Nc3cc(CC(=O)Nc4cccc(F)c4)[nH]n3)ncnc2c1 [AZD2811] (first compound max 1 µM, 7x7, partner max 1 µM) | 0.215 | 0.197 | 0.311 | 0.164 | 0.25 | 0.626 | 0.958 | 0.225 | 0.404 | 0.184 | 0.167 | 0.228 | 0.266 | 0.389
11 | NC1(C(=O)N[C@@H](CCO)c2ccc(Cl)cc2)CCN(c2ncnc3[nH]ccc23)CC1 [Capivasertib] + CC(C)n1c(=O)n(C)c2cnc3cc(F)c(-c4ccc(OCCCN5CCCCC5)nc4)cc3c21 [AZD1390] (first compound max 10 µM, 7x7, partner max 0.3 µM) | 0.195 | 0.163 | 0.387 | 0.432 | 0.26 | 0.0998 | 0.51 | 0.322 | 0.266 | 0.315 | 0.274 | 0.102 | 0.528 | 0.658
12 | CN(C)CCCOc1ccc(-c2ccc3ncc4c(c3c2)n(C2CCOCC2)c(=O)n4C)cn1 [AZD0156] + C[C@@H]1COCCN1C2=NC(=NC(=C2)C3(CC3)[S@](=N)(=O)C)C4=C5C=CNC5=NC=C4 [AZD6738] (first compound max 1 µM, 7x7, partner max 10 µM) | 0.58 | 0.658 | 0.759 | 0.402 | 0.321 | 0.534 | 0.975 | 0.535 | 0.869 | 0.32 | 0.229 | 0.158 | 0.489 | 0.926
13 | COc1cc2c(cc1OCCCCCOc1cc3c(cc1OC)C(=O)N1C=C(C)C[C@H]1C=N3)N=C[C@@H]1CC(C)=CN1C2=O [SG3199] + O=C(c1cc(Cc2n[nH]c(=O)c3ccccc23)ccc1F)N1CCN(C(=O)C2CC2)CC1 [Olaparib] (first compound max 0.001 µM, 7x7, partner max 10 µM) | 0.0928 | 0.112 | 0.0965 | 0.0837 | 0.0776 | 0.0613 | 0.932 | 0.183 | 0.247 | 0.108 | 0.081 | 0.13 | 0.0546 | 0.175
14 | NC1(C(=O)N[C@@H](CCO)c2ccc(Cl)cc2)CCN(c2ncnc3[nH]ccc23)CC1 [Capivasertib] + C[C@@H]1COCCN1C2=NC(=NC(=C2)C3(CC3)[S@](=N)(=O)C)C4=C5C=CNC5=NC=C4 [AZD6738] (first compound max 10 µM, 7x7, partner max 10 µM) | 0.618 | 0.645 | 0.694 | 0.526 | 0.412 | 0.566 | 0.956 | 0.601 | 0.69 | 0.39 | 0.477 | 0.17 | 0.533 | 0.944
